Measurements from US6800674B2, “Anthraquinone compound and water-based ink-jet recording ink containing the compound” (Mitsui Chemicals, Inc., priority 2000, dated 2004).

Legend:
Type in all cases: physicochemical
[1] = Evaluation of light fastness (xenon fadeometer, OD2); conditions: for E (Evaluation of light fastness): aqueous ink, ink production process Example 1, OD2 after 100 hours of irradiation
Description: (§1) Glycerin and water were added to the dispersion (A) of colored resin fine particles to obtain aqueous ink having a solid content of 15% by weight. This aqueous ink was used, and filled in an ink cartridge for a piezo-type ink jet printer, and printing and image recording were conducted with the same printer. The test was conducted on the following items.
(E) Evaluation of Light Fastness
Printing density (OD value) was measured using a xenon fadeometer (manufactured by Suga Shikenki) before irradiation and after 100 hours of irradiation. Light fastness was evaluated upon comparing OD2.
OD2=(OD value after irradiation)/(OD value before irradiation)×100[%]

[2] = Solvent solubility of the coloring matter; conditions: for solubility of the coloring matter (in words): ink produced as in Example 1
[3] = Evaluation of emulsification (visual, in production of emulsion ink); conditions: ink produced as in Example 1
Description: as §1
(A) Evaluation of Emulsification
The emulsification condition in the production of emulsion ink was visually observed, and evaluated.

[4] = Evaluation of water resistance (OD1 after/before dipping in water); conditions: aqueous ink, OD1 after dipping in water and air-drying
Description: as §1
(D) Evaluation of Water Resistance
With respect to a printed portion of a plain paper having a recorded image thereon for test, printing density (OD value) was measured with a reflection densitometer before dipping in water and after dipping in water and air-drying. Water resistance was evaluated upon comparing OD1.
OD1=(OD value after dipping in water and air-drying)/(OD value before dipping in water)×100[%]

[5] = Absorption in toluene solution
[6] = Evaluation of light fastness (xenon fadeometer, OD2); conditions: aqueous ink, ink production process Example 2; OD2 after 100 hours of irradiation
[7] = ink production process Example 1
[8] = ink production process Example 2

SMILES	E (Evaluation of light fastness) [1]	solubility of the coloring matter (in words) [2]	evaluation of emulsification (in words) [3]	D (Evaluation of water resistance) [4, 7]	light fastness (in words) [1]	gram absorption coefficient (εg) [5]	maximum absorption wavelength (λmax) [5] [nm]	E (Evaluation of light fastness) [6]	solubility in toluene ([2]; toluene, room temperature) [%]	D (Evaluation of water resistance) [4, 8]
O=C1c2ccccc2C(=O)c2c1ccc(O)c2O [Comparative Example 1, reference compound]	X (OD value is less than 50%.)	low	poor emulsification	X (OD value is less than 50%.)						
COc1cc(N)c2c(c1N)C(=O)c1ccccc1C2=O [Comparative Example 2, reference compound]	X (OD value is less than 50%.)	low		Δ (OD value is 50 to less than 70%.)	extremely bad					
CNc1cccc2c1C(=O)c1ccccc1C2=O [Comparative Example 3, reference compound]	X (OD value is less than 50%.)	low		◯ (OD value is 70 to less than 80%.)	extremely bad					
CCCCN(CCCC)c1cccc(Oc2cc(O)c3c(c2N)C(=O)c2ccccc2C3=O)c1 [compound 9]	⊚⊚ (OD value is 90 to 100%.)			⊚⊚ (OD value is 90 to 100%.)		30,200 ml/g·cm	517	⊚⊚ (OD value is 90 to 100%.)	≥ 40	⊚⊚ (OD value is 90 to 100%.)
CCN(CC)c1cccc(Oc2cc(O)c3c(c2N)C(=O)c2cc(C)ccc2C3=O)c1 [compound 13]	⊚⊚ (OD value is 90 to 100%.)			⊚⊚ (OD value is 90 to 100%.)				⊚⊚ (OD value is 90 to 100%.)		⊚⊚ (OD value is 90 to 100%.)
CCCCN(CCCC)c1cccc(Oc2cc(O)c3c(c2N)C(=O)c2ccc(CC)cc2C3=O)c1 [compound 14]	⊚⊚ (OD value is 90 to 100%.)			⊚⊚ (OD value is 90 to 100%.)				⊚⊚ (OD value is 90 to 100%.)		⊚⊚ (OD value is 90 to 100%.)
CCc1ccc2c(c1)C(=O)c1c(O)cc(Oc3cccc(N(CC)CC)c3)c(N)c1C2=O [compound 15]	⊚ (OD value is 80 to less than 90%.)			⊚⊚ (OD value is 90 to 100%.)				⊚ (OD value is 80 to less than 90%.)		⊚⊚ (OD value is 90 to 100%.)
CCN(CC)c1cccc(Oc2cc(O)c3c(c2N)C(=O)c2ccc(OC)cc2C3=O)c1 [compound 16]	⊚ (OD value is 80 to less than 90%.)			⊚ (OD value is 80 to less than 90%.)				⊚ (OD value is 80 to less than 90%.)		⊚ (OD value is 80 to less than 90%.)
CCCCCCN(CCCCCC)c1cccc(Oc2cc(O)c3c(c2N)C(=O)c2cccc(C)c2C3=O)c1 [compound 18]	⊚⊚ (OD value is 90 to 100%.)			⊚⊚ (OD value is 90 to 100%.)				⊚⊚ (OD value is 90 to 100%.)		⊚⊚ (OD value is 90 to 100%.)
